The subject of assay [1] is Rattus norvegicus. Briefly: Positive […] activity in Sprague-Dawley rat assessed as increase in ejection fraction at 16 ug/kg/min, iv for 3 mins by echocardiography relative to control. The format is functional.
The test system of assay [2] is Rattus norvegicus. The assay can be described thus: Positive […] activity in Sprague-Dawley rat assessed as increase in fractional shortening at 16 ug/kg/min, iv for 3 mins by echocardiography relative to control. It counts as functional.
The species named for the next assay is Bos taurus. Briefly: Activation of bovine cardiac actin thin filament complex-stimulated myosin S1 ATPase activity assessed as inorganic phosphate liberated at 10 uM incubated for 10 mins in presence of ATP by spectrophotometry relative to control.
The species named for assay [3] is Rattus norvegicus. Briefly: Activation of myosin ATPase activity in Sprague-Dawley rat ventricular myocytes assessed as increase in ventricular cell shortening by measuring change in ventricular cell contractility at 5 uM by electrophysiology relative to control.
For the next assay, the species on record is Oryctolagus cuniculus. The assay can be described thus: Activation of rabbit skeletal muscle actin thin filament complex-stimulated myosin S1 ATPase activity assessed as inorganic phosphate liberated at 100 uM incubated for 10 mins in presence of ATP by spectrophotometry relative to control.
For the next assay, the species on record is Gallus gallus. Briefly: Activation of chicken gizzard muscle actin and tropomyosin-stimulated myosin S1 ATPase activity assessed as inorganic phosphate liberated at 100 uM incubated for 10 mins in presence of ATP by spectrophotometry relative to control.
Assay [4] is filed under the species Rattus norvegicus. Briefly: Activation of myosin ATPase activity in Sprague-Dawley rat ventricular myocytes assessed as increase in ventricular cell shortening by measuring change in ventricular cell contractility at 1 uM by electrophysiology relative to control.

For the molecule `O=C(CCCc1ccccc1)NCCCc1ccccc1`, the Activity in the assay on Rattus norvegicus [1] worked out at 9.08%; in the assay on Rattus norvegicus [2], 13.85%; in the assay listed under Bos taurus, 62%.

With `CN(CCCc1ccccc1)C(=O)NCCc1ccc(S(=O)(=O)N(C)C)cc1`, the Activity in the assay filed under Bos taurus worked out at 47.6%; in the assay filed under Rattus norvegicus [3], 63.5%.

Take `CN(CCc1ccc(S(=O)(=O)N(C)C)cc1)C(=O)NCCCc1ccccc1`: the Activity in the assay filed under Bos taurus amounted to 52.3%; in the assay filed under Rattus norvegicus [3] it was 45.5%.

Regarding `CN(C)S(=O)(=O)c1ccc(CCNC(=O)CCCCc2ccccc2)cc1`, the Activity was 9.75% in the assay on Rattus norvegicus [1]; 14.85% with Rattus norvegicus [2]; -2.8% in the assay listed under Oryctolagus cuniculus; 59% in the assay listed under Bos taurus; 3% in the assay filed under Gallus gallus; 18.6% in the assay listed under Rattus norvegicus [3].

With `CN(C)S(=O)(=O)c1ccc(CCNC(=O)NCCCc2ccccc2)cc1`, the Activity turned out to be 91.6% in the assay filed under Bos taurus and 47.9% in the assay listed under Rattus norvegicus [3].

In the case of `Cc1ccc(CCNC(=O)CCCCc2ccccc2)cc1`, the Activity in the assay filed under Bos taurus amounted to 62.9%.

On to `CN(CCc1ccc(S(=O)(=O)N2CCOCC2)cc1)C(=O)CCCCc1ccccc1`, for which the Activity in the assay filed under Bos taurus was 14.9%.

Take `COc1ccccc1CCNC(=O)CCCCc1ccccc1`: the Activity in the assay with Rattus norvegicus [1] is 9.18%; in the assay with Rattus norvegicus [2], 13.06%; in the assay listed under Bos taurus it was 57.4%.

With `NS(=O)(=O)c1ccc(CCNC(=O)CCCCc2ccccc2)cc1`, the Activity is 2.7% with Rattus norvegicus [1], 4.48% in the assay on Rattus norvegicus [2] and 78.7% in the assay listed under Bos taurus.

With `CCN(CCc1ccc(S(=O)(=O)N(C)C)cc1)C(=O)CCCCc1ccccc1`, the Activity in the assay listed under Bos taurus was 13.9%.

For the molecule `O=C(CCCCc1ccccc1)NC1Cc2ccccc2C1`, the Activity in the assay filed under Bos taurus is 31.1%.

Consider `CNS(=O)(=O)c1ccc(CCN(C)C(=O)CCCCc2ccccc2)cc1`, for which the Activity turned out to be 9.22% in the assay with Rattus norvegicus [1], 13.51% in the assay with Rattus norvegicus [2] and 46.5% in the assay listed under Bos taurus.

`NS(=O)(=O)c1ccc(CNC(=O)CCCCc2ccccc2)cc1`: the Activity in the assay listed under Bos taurus is 44.4%.

Turning to `CN(CCc1ccc(S(=O)(=O)N(C)C)cc1)C(=O)CCCCc1ccccc1`, the Activity is 15.28% in the assay on Rattus norvegicus [1]; 26.21% with Rattus norvegicus [2]; -4.8% in the assay filed under Oryctolagus cuniculus; 48.5% in the assay listed under Bos taurus; 5.2% in the assay filed under Gallus gallus; 88.2% in the assay listed under Rattus norvegicus [3].

As for `O=C(CCCCc1ccccc1)NCCc1ccccc1F`, the Activity in the assay listed under Bos taurus stood at 43.3%.

Regarding `CCN(CC)S(=O)(=O)c1ccc(CCN(C)C(=O)CCCCc2ccccc2)cc1`, the Activity in the assay filed under Bos taurus came to 17.9%.

As for `O=C(CCCCc1ccccc1)NCCc1ccccc1`, the Activity with Rattus norvegicus [1] was 13.97%; with Rattus norvegicus [2] it was 22.8%; in the assay filed under Oryctolagus cuniculus, -2.9%; in the assay filed under Bos taurus, 39.1%; in the assay listed under Gallus gallus it was -2.8%; in the assay listed under Rattus norvegicus [3], 21.3%.

Take `CN(C)S(=O)(=O)c1ccc(CCCC(=O)N2CCC(c3ccccc3)CC2)cc1`: the Activity in the assay filed under Bos taurus turned out to be 29.5%.

Turning to `CN(CCCc1ccccc1)C(=O)CCCc1ccc(S(=O)(=O)N(C)C)cc1`, the Activity with Rattus norvegicus [1] was 14.08%; in the assay with Rattus norvegicus [2], 24.69%; in the assay listed under Oryctolagus cuniculus it was 2.3%; in the assay filed under Bos taurus it was 55%; in the assay listed under Gallus gallus it was -3.4%; in the assay listed under Rattus norvegicus [3], 46.5%.

For the molecule `CNS(=O)(=O)c1ccc(CN(C)C(=O)CCCCc2ccccc2)cc1`, the Activity in the assay on Rattus norvegicus [1] was 9.95%; in the assay on Rattus norvegicus [2] it was 15.75%; in the assay listed under Bos taurus, 55.9%.

Turning to `O=C(NCCCc1ccccc1)NCc1ccccc1`, the Activity in the assay filed under Bos taurus amounted to 53.3%.

As to `O=C(CCCCc1ccccc1)NCc1ccccc1`, in the assay filed under Bos taurus, the Activity is 33.1%.

For the molecule `CCN(Cc1ccc(S(=O)(=O)N(C)C)cc1)C(=O)CCCCc1ccccc1`, the Activity in the assay listed under Bos taurus was 17.5%.

With `Cc1ccc2c(c1)C(=O)[C@]1(O)CCN(c3ccccc3)C1=N2`, the values for the Activity in the assay filed under Oryctolagus cuniculus and in the assay listed under Gallus gallus were -50.7% and -35.7%, respectively.

In the case of `CN(Cc1ccc(S(=O)(=O)N(C)C)cc1)C(=O)CCCCc1ccccc1`, the Activity in the assay listed under Bos taurus was 24.1%.

Turning to `CN(C)S(=O)(=O)c1ccc(CCCC(=O)N2CCN(c3ccccc3)CC2)cc1`, the Activity in the assay filed under Bos taurus was 14%.

With `COc1ccc(CCNC(=O)CCCCc2ccccc2)cc1OC`, the values for the Activity with Rattus norvegicus [1], in the assay with Rattus norvegicus [2] and in the assay filed under Bos taurus were 8.19%, 11.83% and 71.6%, respectively.

With `COC(=O)N1CCN(Cc2cccc(NC(=O)Nc3ccc(C)nc3)c2F)CC1`, the Activity in the assay listed under Oryctolagus cuniculus was 2.8%; in the assay filed under Bos taurus, 58%; in the assay listed under Rattus norvegicus [4] it was 33.8%; in the assay filed under Gallus gallus, -5.5%.

With `CN(C)S(=O)(=O)c1ccc(CNC(=O)CCCCc2ccccc2)cc1`, the Activity in the assay listed under Bos taurus was determined as 20%.

Take `O=C(NCCCc1ccccc1)NCCc1ccccc1`: in the assay listed under Bos taurus, the Activity stood at 51.1%.

With `CN(C)S(=O)(=O)c1ccc(CCCC(=O)NCCCc2ccccc2)cc1`, the Activity in the assay with Rattus norvegicus [1] is 11.65%; in the assay on Rattus norvegicus [2] it was 17.55%; in the assay listed under Oryctolagus cuniculus, -1.9%; in the assay filed under Bos taurus it was 50.3%; in the assay listed under Gallus gallus, 4.1%; in the assay listed under Rattus norvegicus [3] it was 20.5%.

(Values after ChEMBL document CHEMBL4373705, “Design and synthesis of sulfonamidophenylethylamides as novel cardiac myosin activator” (2019).)
